Data: patent publication US20260356879A1, “CELASTROL DERIVATIVES” (Celloram Inc., priority 2022, published 2026)
Like-named read-outs stand apart in the source and are kept apart here. Values belong to the molecule of their own block, whether it stands above or below them.

Legend:
[1] = tested on: NF-kB; experiment: NF-kB luciferase reporter assay (HepG2 NF-kB-Luc reporter cells, IL-1β stimulated); type: cell-based, human; conditions: for IC50: Homo sapiens; for % IC50 relative to Celastrol: relative to celastrol (compound 1)
Protocol: HepG2 NF-kB-Luc reporter cells stimulated with IL-1β (20 ng/ml) and the relative NF-kB luciferase activity (RLU) was determined for each of celastrol (compound 1) and each of the exemplary derivative compounds at the following eight point concentrations: 10 μM, 5 μM, 2.5 μM, 1.25 μM, 0.63 μM, 0.31 μM, 0.16 μM, 0.016 μM, and 0 μM). Assay values were plotted (not shown) and IC50 inhibitory concentrations were calculated after normalization using Prizm 9.0 software.
This example illustrates a study of the anti-inflammatory potential of an exemplary celastrol derivative of the present disclosure (compound 22) using an NF-κB luciferase promoter reporter gene assay in the human liver cancer cell line, HepG2.
NF-kB luciferase reporter assay: The celastrol derivative, compound 22 (prepared as described in Example 13) and the parent molecule, compound 1 (celastrol), were freshly dissolved in DMSO. HepG2 NF-κB reporter cells were seeded (2.5×10^4/well) in 96-well plate and then pre-treated with either compound 22 or compound 1 at the 8-point concentrations of 10, 5, 2.5, 1.25, 0.63, 0.31, 0.16, 0.016, or 0 μM, respectively, and the NF-κB promoter was activated by adding IL-1β (20 ng/ml) to the cells. After 18 hours, the cells were harvested by adding the 1× passive cell lysis buffer (Promega) and followed by measurement of the relative NF-kB luciferase activity (RLU) using GloMax discover microplate reader (Promega). Inhibitory concentrations (IC50) after normalization using Prizm 9.0 software.

[2] = tested on: NLRP3 inflammasome; experiment: IL-1β secretion in BMDMs, LPS + Nigericin; type: cell-based, mouse; conditions: Mus musculus, BMDM, LPS (100 ng/ml) + Nigericin (10 μM), 0-10 μM, FIG. 5A, read-out: IC50 for inhibition of IL-1β secretion (normalized)
Protocol: (§1) This example illustrates a comparative study of CLM-022 and MCC950 in inhibiting NLRP3 inflammasome activity in mouse and human macrophages.
(§2) Bone marrow-derived macrophages (BMDMs) were treated with LPS (100 ng/ml) for 3 hours to induce the expression of inflammatory genes, including TNF-α, NLRP3, and pro-IL-1β. Subsequently, the BMDMs were treated with CLM-022 or MCC950 in a dose range of 0-10 μM for 30 minutes. Then, to fully activate NLRP3-dependent inflammasome activity and cytokine secretion, Nigericin (10 μM) was added to the BMDMs for an additional 30 minutes.

[3] = tested on: TNF-α secretion; experiment: TNF-α secretion in BMDMs, LPS + Nigericin; type: cell-based, mouse; conditions: FIG. 5B
Protocol: as §1, §2

[4] = tested on: NLRP3 inflammasome; experiment: IL-1β secretion in THP-1 macrophages, LPS + Nigericin; type: cell-based; conditions: human THP-1 macrophages, LPS (100 ng/ml) + Nigericin (10 μM), 0-10 μM; FIG. 5C; read-out: IC50 for inhibition of IL-1β secretion
Protocol: as §1
To confirm the inhibitory effect of CLM-022 in human macrophages, THP-1 cells, a human leukemia monocytic cell line, were differentiated into macrophages using phorbol 12-myristate-13-acetate (PMA, 100 ng/ml) treatment for one day. The THP-1 macrophages were then treated with LPS (100 ng/ml) for 3 hours to induce the expression of inflammatory genes. Subsequently, the THP-1 cells were treated with CLM-022 or MCC950 in a dose range of 0-10 μM for 30 minutes. Then, to fully activate NLRP3-dependent inflammasome activity, Nigericin (10 μM) was added to the THP-1 cells for an additional 60 min.

[5] = tested on: THP-1 cells; experiment: THP-1 cell viability (inflammasome-induced pyroptosis), live/dead staining and flow cytometry; type: cell-based, human; conditions: THP-1, LPS and Nigericin; FIG. 7A
Text: (§3) Pyroptosis, a pro-inflammatory form of cell death, is triggered by the activation of NLRP3 inflammasome components (GSDMD and Caspase-1), leading to the release of pro-inflammatory cytokines IL-1β and IL-18, as well as damage-associated molecular patterns (DAMPs). This process elicits a cascade of inflammatory responses, which can persist if dysregulated in affected tissues. Given the significant inhibitory potential of CLM-022 against NLRP3 inflammasome and IL-1β secretion, it was proposed that CLM-022 could effectively enhance cell viability by inhibiting pyroptosis in the context of inflammation and inflammasome activation. This example illustrates a comparative study of the abilities of CLM-022 and MCC950 to protect THP-1 cells from inflammasome-induced pyroptosis.
(§4) After LPS and Nigericin treatment, THP-1 cells were treated with either CLM-022 or MCC950 over a dosage range of 0 μM to 10 μM and cell viability was determined by impermeant live/dead staining dye and flow cytometric analysis. Additionally, NLRP3 inflammasome-induced cytotoxicity was investigated by measuring the level of LDH in the conditioned media after the CLM-022 and MCC950 treatments. Further, Western blotting of samples from the THP-1 cell viability assays was carried out to determine levels of the pyroptosis-mediating molecules, GSDMD and Caspase-1.

[6] = tested on: THP-1 cells; experiment: LDH release (NLRP3 inflammasome-induced cytotoxicity) in THP-1 cells; type: cell-based, human; conditions: THP-1, LPS and Nigericin, FIG. 7B
Text: as §3, §4

[7] = tested on: GSDMD and Caspase-1; experiment: GSDMD and Caspase-1 cleavage in THP-1 cells (western blot); type: cell-based; conditions: Homo sapiens; THP-1, western blot; FIG. 7C; read-out: concentration inhibiting GSDMD and Caspase-1 cleavage
Text: as §3, §4

[8] = tested on: TNF-α secretion; experiment: Secreted TNF-α in conditioned media of BMDC (ELISA), LPS+ATP or LPS+Nigericin; type: cell-based; conditions: 63-500 nM, FIG. 2C
Protocol: FIG. 2A depicts western blot images showing the relative NLRP3 inflammasome activity of the compounds 22 (CLM-022) and 1 (CLM-001) by detecting the level of cellular ASC complex and the mature form of IL-1β (15 kDa) in a conditioned media of BMDCs treated with LPS (100 ng/ml) for 3 hours and then the compound at 50 nM, 100 nM, and 500 nM concentration for 30 min, followed by ATP or Nigericin. ASC monomer and β-Actin proteins were used as controls. FIG. 2B depict plots of results showing secreted IL-1β levels measured by ELISA using conditioned media of BMDC treated with the compound 22 or compound 1 at 63 nM, 125 nM, 250 nM, and 500 nM, under NLRP3 inflammasome activation induced either by LPS+ATP or LPS+Nigericin. FIG. 2C depict plots of results showing secreted TNF-α levels measured by ELISA using conditioned media of BMDC treated with the compound 22 or compound 1 at 63 nM, 125 nM, 250 nM, and 500 nM, under NLRP3 inflammasome activation induced either by LPS+ATP or LPS+Nigericin.
3. The secreted form of TNF-α, a NLRP3 inflammasome independent cytokine, induced by LPS+ATP or LPS+Nigericin were measured by ELISA assay using the conditioned media of BMDC treated with compound 1 (CLM-1) or compound 22 (CLM-022) at concentrations of 63, 125, 250, 500 nM under NLRP3 inflammasome activation induced either by LPS+ATP or LPS+Nigericin.

[9] = tested on: LPS-induced acute inflammation; experiment: LPS-induced septic shock mouse model, cytokine expression in serum (ELISA) and colonic mucosa (qPCR); type: in vivo; conditions: 1 mg/kg i.p. 1 hour before LPS (25 mg/kg, i.p.), 4 hours post LPS, ELISA; FIG. 4A
Protocol: FIG. 4A, and FIG. 4B depict results showing that compound 22 (CLM-022) decreased the production of pro-inflammatory cytokines in the LPS-induced septic shock mouse model as described in Example 17. Compound 1 (CLM-001) and compound 22 (CLM-022) (1 mg/kg) injected intraperitoneally 1 hour prior to septic shock induction by administering sublethal dose of LPS (25 mg/kg, i.p.), mice were sacrificed 4 hours post LPS injection, and subjected to measurement of inflammatory cytokine expression. FIG. 4A depicts plot of data showing that the level of TNF-α decreased in the serum of compound 1 and compound 22 treated mice.
This example illustrates a study of the inhibitory function of an exemplary celastrol derivative of the present disclosure (compound 22) against LPS-induced acute inflammation in vivo, we set up LPS-induced septic shock mouse model (Yu et al., 2017) and detected the expression levels of inflammatory cytokines in colon.
Mice (n=3 per group) were administered intraperitoneally (i.p.) with control vehicle, compound 1 (1 mg/kg), or compound 22 (1 mg/kg). After 1 hour, mice were administered by i.p. injection a sublethal dose of LPS (25 mg/kg). Four hours later, the mice were subjected to blood collection and harvesting colonic mucosa by scraping colon. Cytokine expression was measured by conducting ELISA (Cat #900-T54, PeproTech) for TNF-α on blood serum samples and qPCR for the cytokines, IL-1 (TaqMan, Mm00434228), IL-6 (TaqMan, Mm00446190), TNF-α (TaqMan, 00443258), iNOS (TaqMan, 00440502), on colonic mucosa samples.

[10] = HepG2 NF-kB-Luc reporter cells, IL-1β (20 ng/ml), Example 13, read-out: NF-kB IC50

- IC50 [1, 10]: 1640 nM
- % IC50 relative to Celastrol [1]: 163%
SMILES: CC1=C(O)C(=O)C=C2C1=CC=C1[C@@]2(C)CC[C@@]2(C)C3C[C@](C)(NC(=O)C(=O)NC4CN(C)C4)CC[C@]3(C)CC[C@]12C (stereo partly drawn) [Compound 17, N1-((2R,4aS,6aS,12bR,14aS)-10-hydroxy-2,4a,6a,9,12b,14a-hexamethyl-11-oxo-1,2,3,4,4a,5,6,6a,11,12b,13,14,14a,14b-tetradecahydropicen-2-yl)-N2-(1-methylazetidin-3-yl)oxalamide]

- IC50 [4]: 1250 nM
SMILES: CC(C)(O)c1coc(S(=O)(=O)NC(=O)Nc2c3c(cc4c2CCC4)CCC3)c1 [MCC950, reference compound]
- IC50 [2]: 70 nM
- suppression of TNF-α secretion [3]: neither CLM-022 nor MCC950 suppressed TNF-α secretion
- cell viability (in words) [5]: A similar effect
- IC50 ([6]; Homo sapiens, 0 μM to 10 μM, read-out: IC50 for LDH release (normalized)): 124 nM
- inhibition of LDH release [6]: significantly inhibited release of LDH
- minimal effective concentration [7]: 1 µM

Second part, the molecule before the results:

SMILES: CC1=C(O)C(=O)C=C2C1=CC=C1[C@@]2(C)CC[C@@]2(C)C3C[C@](C)(NC(=O)C(=O)N4CCN(C)CC4)CC[C@]3(C)CC[C@]12C (stereo partly drawn) [Compound 14, N-((2R,4aS,6aS,12bR,14aS)-10-hydroxy-2,4a,6a,9,12b,14a-hexamethyl-11-oxo-1,2,3,4,4a,5,6,6a,11,12b,13,14,14a,14b-tetradecahydropicen-2-yl)-2-(4-methylpiperazin-1-yl)-2-oxoacetamide]
- IC50 [1, 10]: 1160 nM
- % IC50 relative to Celastrol [1]: 115%

SMILES: CC1=C(O)C(=O)C=C2C1=CC=C1[C@@]2(C)CC[C@@]2(C)C3C[C@](C)(NC(=O)C(=O)N4CC5(COC5)C4)CC[C@]3(C)CC[C@]12C (stereo partly drawn) [Compound 15, N-((2R,4aS,6aS,12bR,14aS)-10-hydroxy-2,4a,6a,9,12b,14a-hexamethyl-11-oxo-1,2,3,4,4a,5,6,6a,11,12b,13,14,14a,14b-tetradecahydropicen-2-yl)-2-oxo-2-(2-oxa-6-azaspiro[3.3]heptan-6-yl)acetamide]
- IC50 [1, 10]: 942 nM
- % IC50 relative to Celastrol [1]: 93%

SMILES: CC1=C(O)C(=O)C=C2C1=CC=C1[C@@]2(C)CC[C@@]2(C)C3C[C@](C)(N(C)C(=O)C(=O)N4CCN(C)CC4)CC[C@]3(C)CC[C@]12C (stereo partly drawn) [Compound 16, N-((2R,4aS,6aS,12bR,14aS)-10-hydroxy-2,4a,6a,9,12b,14a-hexamethyl-11-oxo-1,2,3,4,4a,5,6,6a,11,12b,13,14,14a,14b-tetradecahydropicen-2-yl)-N-methyl-2-(4-methylpiperazin-1-yl)-2-oxoacetamide]
- IC50 [1, 10]: 1150 nM
- % IC50 relative to Celastrol [1]: 114%

SMILES: CC1=C(O)C(=O)C=C2C1=CC=C1[C@@]2(C)CC[C@@]2(C)[C@@H]3C[C@](C)(C(=O)O)CC[C@]3(C)CC[C@]12C [Compound 1, (2R,4aS,6aR,6aS,14aS,14bR)-10-hydroxy-2,4a,6a,6a,9,14a-hexamethyl-11-oxo-1,3,4,5,6,13,14,14b-octahydropicene-2-carboxylic acid, reference compound]
- IC50 ([1]; HepG2, IL-1β (20 ng/ml), 18 hours, normalized, Example 14, FIG. 1B, read-out: IC50 for NF-κB promoter activity): 528 nM
- IC50 [1, 10]: 667 nM
- suppression of TNF-α secretion [8]: no significant suppressive effect on TNF-α inflammatory cytokine secretion
- level of TNF-α in serum [9]: decreased
